Experimental findings from patent US20250282776A1, “Bicyclic TLR7 Agonists and Uses Thereof” (Bristol-Myers Squibb Company, priority 2024, published 2025) are described below.

Each structure is given as a SMILES string.

One assay concerns the target T1, human TLR8 (hTLR8) (Homo sapiens, UniProt Q9NR97).
T1 construct: expressed in transfected cells
T1 sequence (Q9NR97 27-1041): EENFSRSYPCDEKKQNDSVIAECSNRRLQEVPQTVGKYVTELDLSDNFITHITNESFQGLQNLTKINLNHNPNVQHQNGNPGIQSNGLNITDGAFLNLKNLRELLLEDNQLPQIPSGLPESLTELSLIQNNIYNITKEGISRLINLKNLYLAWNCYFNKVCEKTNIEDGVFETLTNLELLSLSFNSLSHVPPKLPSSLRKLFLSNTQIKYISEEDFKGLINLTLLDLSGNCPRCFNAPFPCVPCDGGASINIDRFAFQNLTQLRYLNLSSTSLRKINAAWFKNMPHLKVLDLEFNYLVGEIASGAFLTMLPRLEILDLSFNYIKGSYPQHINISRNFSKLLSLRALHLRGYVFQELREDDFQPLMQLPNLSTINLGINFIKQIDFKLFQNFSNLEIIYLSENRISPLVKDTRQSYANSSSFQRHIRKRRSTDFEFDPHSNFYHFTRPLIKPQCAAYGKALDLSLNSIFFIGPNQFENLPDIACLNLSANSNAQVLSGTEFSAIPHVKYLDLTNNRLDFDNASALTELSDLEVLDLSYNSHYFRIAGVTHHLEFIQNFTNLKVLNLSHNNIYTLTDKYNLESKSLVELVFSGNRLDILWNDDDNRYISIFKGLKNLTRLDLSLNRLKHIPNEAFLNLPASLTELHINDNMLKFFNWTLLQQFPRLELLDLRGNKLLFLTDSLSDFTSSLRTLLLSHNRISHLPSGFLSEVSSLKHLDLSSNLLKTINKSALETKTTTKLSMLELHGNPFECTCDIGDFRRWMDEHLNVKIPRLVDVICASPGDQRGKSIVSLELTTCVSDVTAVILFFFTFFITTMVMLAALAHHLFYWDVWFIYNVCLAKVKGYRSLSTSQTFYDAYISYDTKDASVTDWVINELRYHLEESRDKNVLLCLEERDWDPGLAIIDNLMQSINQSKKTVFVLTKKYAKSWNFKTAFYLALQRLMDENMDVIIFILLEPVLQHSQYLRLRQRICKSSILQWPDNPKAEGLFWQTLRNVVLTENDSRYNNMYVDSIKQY
In words: Human TLR8 agonist activity assay (measured in a similar manner). It counts as cell-based. The settings on record: HEK-Blue TLR cells, SEAP reporter, measured in a similar manner to TLR7; some values average of multiple measurements. The method, then:
(§1) This procedure describes a method for assaying human TLR7 (hTLR7) and human TLR8 (hTLR8) agonist activity of the compounds disclosed herein.
HEK-Blue™ TLR7 cells were added to each well of a 384-well tissue-culture plate (15,000 cells per well) and incubated 16-18 h at 37° C., 5% CO2. Compounds (100 nL) were dispensed into wells containing the HEK-Blue™ TLR cells and the treated cells were incubated at 37° C., 5% CO2. After 18 h, ten microliters 5 of freshly prepared Quanti-Blue™ reagent (Invivogen) was added to each well and incubated for 30 min (37° C., […]). SLAP levels were measured using an Envision plate reader (OD=620 nm). […] Some of the reported activities were the average of multiple measurements.
TLR8 activity was measured in a similar manner.

For a further assay, the target named is T2, human TLR7 (hTLR7) (Homo sapiens, UniProt Q9NYK1).
T2 construct: host or cells: HEK-Blue TLR7 cells (engineered human embryonic kidney cells)
T2 sequence (Q9NYK1 27-1049): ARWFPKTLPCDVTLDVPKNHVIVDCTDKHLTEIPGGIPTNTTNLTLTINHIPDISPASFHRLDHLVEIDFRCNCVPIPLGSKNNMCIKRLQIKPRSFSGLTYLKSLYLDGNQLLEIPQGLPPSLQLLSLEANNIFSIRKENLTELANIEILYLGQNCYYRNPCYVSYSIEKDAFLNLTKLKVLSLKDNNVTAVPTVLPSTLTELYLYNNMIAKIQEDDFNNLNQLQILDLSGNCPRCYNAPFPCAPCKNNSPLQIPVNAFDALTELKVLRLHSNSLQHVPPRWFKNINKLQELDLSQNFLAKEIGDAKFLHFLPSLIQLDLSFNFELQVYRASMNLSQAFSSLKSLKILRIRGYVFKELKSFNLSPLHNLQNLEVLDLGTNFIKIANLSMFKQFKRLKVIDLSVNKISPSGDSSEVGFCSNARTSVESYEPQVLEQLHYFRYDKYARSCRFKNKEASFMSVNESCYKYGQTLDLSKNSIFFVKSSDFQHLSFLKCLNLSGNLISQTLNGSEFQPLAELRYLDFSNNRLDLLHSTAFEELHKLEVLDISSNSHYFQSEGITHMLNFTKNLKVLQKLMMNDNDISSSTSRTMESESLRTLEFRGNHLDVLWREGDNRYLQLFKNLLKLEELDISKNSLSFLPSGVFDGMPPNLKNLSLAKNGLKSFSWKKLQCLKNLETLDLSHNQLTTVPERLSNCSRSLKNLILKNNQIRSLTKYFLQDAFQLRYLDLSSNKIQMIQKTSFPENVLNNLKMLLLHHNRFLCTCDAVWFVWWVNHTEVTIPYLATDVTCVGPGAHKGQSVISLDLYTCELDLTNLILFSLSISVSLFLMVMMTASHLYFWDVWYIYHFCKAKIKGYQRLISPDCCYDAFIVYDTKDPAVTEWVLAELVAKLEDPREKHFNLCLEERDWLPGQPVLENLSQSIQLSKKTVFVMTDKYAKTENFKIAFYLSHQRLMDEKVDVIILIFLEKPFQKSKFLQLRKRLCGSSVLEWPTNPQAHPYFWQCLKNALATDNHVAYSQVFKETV
Briefly: Human TLR7 agonist activity assay (HEK-Blue TLR7 SEAP reporter). The conditions noted are these: HEK-Blue TLR7 cells, 18 h incubation, Quanti-Blue, OD 620 nm, some values average of multiple measurements. The assay is classed as cell-based. The method, then: as §1
HEK-Blue™ TLR7 cells were added to each well of a 384-well tissue-culture plate (15,000 cells per well) and incubated 16-18 h at 37° C., 5% CO2. Compounds (100 nL) were dispensed into wells containing the HEK-Blue™ TLR cells and the treated cells were incubated at 37° C., 5% CO2. After 18 h, ten microliters 5 of freshly prepared Quanti-Blue™ reagent (Invivogen) was added to each well and incubated for 30 min (37° C., […]). SLAP levels were measured using an Envision plate reader (OD=620 nm). The half maximal effective concentration values (ECSO; compound concentration which induced a response halfway between the assay baseline and maximum) were calculated. Some of the reported activities were the average of multiple measurements.

What is called EC50 is the concentration that produces a half-maximal response. A low value points to a more potent agent. For the compound `CCCCN(c1nc(N)nc2cn(Cc3ccc(CN4CCCCC4)cc3OC)nc12)C(C)CO` (racemic) [Compound 49, 2-((5-amino-2-(2-methoxy-4-(piperidin-1-ylmethyl)benzyl)-2H-pyrazolo[4,3-d]pyrimidin-7-yl)(butyl)amino)propan-1-ol], the EC50 worked out at 682 nM on human TLR8 (hTLR8) and 385 nM at human TLR7 (hTLR7).
Taken in the same sequence, the figures for `CCCCN(CCO)c1nc(N)nc2cn(Cc3ccc(CNC4CCOC(C)(C)C4)cc3OC)nc12` (racemic) [Compound 103, 2-((5-Amino-2-(4-(((2,2-dimethyltetrahydro-2H-pyran-4-yl)amino)methyl)-2-methoxybenzyl)-2H-pyrazolo[4,3-d]pyrimidin-7-yl)(butyl)amino) ethan-1-ol] were 202 nM and 322 nM.
On the same counts, the results for `CCCCN(c1nc(N)nc2cn(Cc3ccc(CN4CCCCC4)cc3OC)nc12)C(C)CO` (single isomer, unassigned) [Compound 49-1, 2-((5-amino-2-(2-methoxy-4-(piperidin-1-ylmethyl)benzyl)-2H-pyrazolo[4,3-d]pyrimidin-7-yl)(butyl)amino)propan-1-ol] are 949 nM and 374 nM.
As to `CCCCN(c1nc(N)nc2cn(Cc3ccc(CN4CCCCC4)cc3OC)nc12)C(C)CO` (single isomer, unassigned) [Compound 49-2, 2-((5-amino-2-(2-methoxy-4-(piperidin-1-ylmethyl)benzyl)-2H-pyrazolo[4,3-d]pyrimidin-7-yl)(butyl)amino)propan-1-ol], the EC50 on human TLR8 (hTLR8) turned out to be 682 nM; at human TLR7 (hTLR7), 385 nM.
Taken in the same sequence, the figures for `CCCCN(CCO)c1nc(N)nc2cn(Cc3ccc(CNC4CCOC(C)(C)C4)cc3OC)nc12` (single isomer, unassigned) [Compound 111, 2-((5-Amino-2-(4-(((2,2-dimethyltetrahydro-2H-pyran-4-yl)amino)methyl)-2-methoxybenzyl)-2H-pyrazolo[4,3-d]pyrimidin-7-yl)(butyl)amino) ethan-1-ol] were 453 nM and 654 nM.
Taken in the same sequence, the figures for `CCCCN(CCO)c1nc(N)nc2cn(Cc3ccc(CNC4CCOC(C)(C)C4)cc3OC)nc12` (single isomer, unassigned) [Compound 112, 2-((5-Amino-2-(4-(((2,2-dimethyltetrahydro-2H-pyran-4-yl)amino)methyl)-2-methoxybenzyl)-2H-pyrazolo[4,3-d]pyrimidin-7-yl)(butyl)amino) ethan-1-ol] were 562 nM and 585 nM.
On the same counts, the results for `CCCCN(CCO)c1nc(N)nc2cn(Cc3ccc(CNC4CCOC(C)C4)cc3OC)nc12` (single isomer, unassigned) [Compound 121] are 564 nM and 1360 nM.
Regarding `CCCCN(CCO)c1nc(N)nc2cn(Cc3ccc(CNC4CCOC(C)C4)cc3OC)nc12` (single isomer, unassigned) [Compound 122], the EC50 at human TLR8 (hTLR8) worked out at 189 nM; at human TLR7 (hTLR7) it was 561 nM.
Taken in the same sequence, the figures for `CCCCN(CCO)c1nc(N)nc2cn(Cc3ccc(CNC4CCC4)cc3OC)nc12` [Compound 1] were 1140 nM and 1290 nM.
Taken in the same sequence, the figures for `CCCCN(CCO)c1nc(N)nc2cn(Cc3ccc(CN4CCCCC4)cc3OC)nc12` [Compound 2] were 1010 nM and 1340 nM.
Taken in the same sequence, the figures for `CCCCN(CCO)c1nc(N)nc2cn(Cc3ccc(CNC4CCOCC4)cc3OC)nc12` [Compound 3] were 596 nM and 970 nM.
Take `CCCCN(CCO)c1nc(N)nc2cn(Cc3ccc(CN4CCCC4)cc3OC)nc12` [Compound 4]: the EC50 on human TLR8 (hTLR8) was found to be 633 nM; at human TLR7 (hTLR7), 694 nM.
In turn, `CCCN(CCO)c1nc(N)nc2cn(Cc3ccc(CNC4CCC4)cc3OC)nc12` [Compound 43] showed an EC50 at human TLR8 (hTLR8) of 1740 nM. This lies in the single-digit micromolar range.
As for `CCCCN(CCO)c1nc(N)nc2cn(Cc3ccc(CNCC4CC5(CCC5)C4)c4cccnc34)nc12` [Compound 67], the midpoint of the response on human TLR8 (hTLR8), the EC50, lay at 2160 nM.
The same measure, in the same setting: with `CCC[C@@H](CO)N(C)c1nc(N)nc2cn(Cc3ccc(CN4CCCC4)cc3OC)nc12` [Compound 87] the figure was 1820 nM; with `CCCCN(CCO)c1nc(N)nc2cn(Cc3cnc(CN[C@H]4C[C@H](OC)C4)cc3OC)nc12` [Compound 124], 1870 nM.
On the same count and under the same terms, with `CCCCN(CCO)c1nc(N)nc2cn(Cc3ccc(CNC4CCOC(C)C4)cc3OC)nc12` (stereo not drawn) [Compound 126] the figure was 689 nM.
Same read-out and setting: then `CCCCN(CCO)c1nc(N)nc2cn(Cc3ccc(CNCCO)cc3C(F)F)nc12` [Compound 129], with 2710 nM; and `CCCCN(CCO)c1nc(N)nc2cn(Cc3ccc(CNC4CC5(COC5)C4)cc3)nc12` [Compound 159], with 1190 nM; and `CCCCN(CCO)c1nc(N)nc2cn(Cc3ccc(CNCCO)cc3)nc12` [Compound 160], with 1970 nM.
Turning to `CCCCN(CCO)c1nc(N)nc2cn(Cc3ccc(CNC4(COC)CCOCC4)cc3OC)nc12` [Compound 165], a half-maximal effect on human TLR8 (hTLR8) (EC50) was put at 460 nM.
On to `CCCCN(CCO)c1nc(N)nc2cn(Cc3ccc(CNC4(C)CCC4)cc3C(F)F)nc12` [Compound 167], for which a half-maximal effect at human TLR8 (hTLR8) (EC50) was put at 1610 nM.
The same measure, in the same setting: with `CCCCN(CCO)c1nc(N)nc2cn(Cc3ccc(CNC4CCC(F)(F)CC4)c4scnc34)nc12` [Compound 203] the figure was 2400 nM.
With `CCCCN(CCO)c1nc(N)nc2cn(Cc3ccc(CNC4CCOCC4)c4cn[nH]c34)nc12` [Compound 204], the EC50 on human TLR8 (hTLR8) was found to be 1270 nM.
At human TLR8 (hTLR8), `CCCCN(CCO)c1nc(N)nc2cn(Cc3ccc(CN[C@H]4CCOC4)c4nccnc34)nc12` [Compound 205] registered an EC50 of 1340 nM.
The same measure, in the same setting: then `CCCCN(CCO)c1nc(N)nc2cn(Cc3ccc(CNC4CCOC(C)(C)C4)c4cn[nH]c34)nc12` (stereo not drawn) [Compound 209], with 2850 nM; and `CCCCN(CCO)c1nc(N)nc2cn(Cc3ccc(CNC4CCOCC4)c4ncsc34)nc12` [Compound 210], with 1860 nM.
